Test results as given in paper PMC9065035, “Structural basis for the synthesis of the core 1 structure by C1GalT1” (Nature Communications, 2022).
Several values for one entry are separate records, joined by “and”; a condition that tells them apart may be missing. Equal values may be shown once. Read-outs that look alike come from different tables or passages of the source. Peptide text beside a SMILES is read from it. * marks the point of attachment. αGalNAc = CC(=O)N[C@@H]1[C@@H](O)[C@@H](O)[C@@H](CO)O[C@@H]1*

Experiments:
DmC1GalT1^T43-Q388 [1] = target: T1, DmC1GalT1^T43-Q388 (Drosophila melanogaster, UniProt Q7K237); experiment: Isothermal titration calorimetry (ITC); format: binding; design: made in house
T1 sequence (Q7K237 43-388): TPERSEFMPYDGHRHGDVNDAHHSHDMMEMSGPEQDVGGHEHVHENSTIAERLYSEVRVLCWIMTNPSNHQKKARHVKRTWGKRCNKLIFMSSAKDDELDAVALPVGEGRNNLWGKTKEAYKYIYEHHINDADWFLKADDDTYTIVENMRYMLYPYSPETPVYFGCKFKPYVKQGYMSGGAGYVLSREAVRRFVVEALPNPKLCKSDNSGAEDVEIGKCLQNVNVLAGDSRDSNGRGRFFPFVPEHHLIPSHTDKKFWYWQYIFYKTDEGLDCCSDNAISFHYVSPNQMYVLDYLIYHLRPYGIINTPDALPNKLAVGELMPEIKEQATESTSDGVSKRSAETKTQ
Procedure: ITC was used to characterize the interaction of DmC1GalT1^T43-Q388 with UDP, APDT*RP with and without UDP, APDTRP with UDP, and P4/P7 with and without UDP. All experiments were carried out in an Auto-iTC200 (Microcal, GE Healthcare) at 20 °C. The titration of DmC1GalT1^T43-Q388 with UDP was carried out at 100 μM of the enzyme with 800 μM UDP in 25 mM TRIS pH 7.5, 150 mM NaCl and 1 mM MnCl2. The titrations with APDT*RP and P4/P7 in the absence of UDP were carried out at 60 μM of the enzyme with 2 mM P4/P7 in 25 mM TRIS pH 7.5, 150 mM NaCl and 1 mM MnCl2. To determine the Kds for APDT*RP, APDTRP and P4/P7 under an excess of UDP, the experiments were made in 25 mM TRIS pH 7.5, 150 mM NaCl, 1 mM UDP and 1 mM MnCl2. The concentration of the enzyme was 60 μM for the titrations of APDT*RP and APDTRP and 50 μM for the titration with P4/P7. The concentration of the (glyco)peptides was 2 mM in all the ITC experiments. The experiments were performed in duplicate. Data integration, correction and analysis were carried out in Origin 7 (Microcal). The data were fit to a one-site equilibrium-binding model. Stoichiometry (n) of binding in all cases was ~1:1 except for UDP whose n = 0.4.

DmC1GalT1^T43-Q388 [2] = target: T1, DmC1GalT1^T43-Q388; experiment: UDP-Glo glycosylation kinetics of DmC1GalT1 T43-Q388; details: for kcat app/Km app (catalytic efficiency): ± standard error
DmC1GalT1^T43-Q388 [3] = target: T1, DmC1GalT1^T43-Q388; experiment: STD NMR experiments; format: binding; design: made in house
Procedure: STD NMR experiments were performed using a 1:35 molar ratio, defined by 20 μM DmC1GalT1^T43-Q388 and 710 μM ligands (α-O-methyl-GalNAc, and (glyco)peptides), and 25 mM Tris(D11)-DCl buffer, pD 7.5, with 150 mM NaCl and 150 µM MnCl2 in D2O. […] In the presence of 150 µM MnCl2, strong paramagnetic relaxation enhancements are observed for UDP, which prevents the observation of UDP proton signals in the NMR spectra. […] STD NMR spectra (stddiffesgp pulse sequence from Bruker pulse program library) were acquired with 1728 scans and 64 K data points, in a spectral window of 12335.53 Hz centered at 2818 Hz. Selective saturation (on resonance) was performed by irradiating at 7 and/or −0.5 ppm (depending if the ligand contains or not aromatic residues) using a series of 40 Eburp2.1000-shaped (from Bruker shaped pulses library) 90° pulses (50 ms) for a total saturation time of 2 s, and a relaxation delay of 4 s. For the reference spectrum (off resonance), the samples were irradiated at 100 ppm. Proper control experiments were performed for each ligand in the absence of protein and residual STD signals of the methyl groups of Ala/Thr were observed. […] Protein control experiments were also accomplished using DmC1GalT1^T43-Q388 in absence of a ligand and also subtracted from STD experiment. The STD spectrum (ISTD) was obtained by subtracting the on-resonance spectrum (Ion) to the off-resonance spectrum (Ioff). The % of STD (ISTD/Ioff × 100) was estimated by comparing the intensity of the signals in the STD spectrum (ISTD) with the signal intensities of the reference spectrum (Ioff). The STD amplification factor (STDAF) was also estimated by multiplying the % STD values by the ligand excess, which in the case of our experiments was 35 for every ligand. To determine the STD-derived epitope map the relative % of STD were calculated by setting to 100% the STD signal of the proton with the highest STD intensity and calculating the others accordingly (Supplementary Tables 2–4). Some protons were not able to be assessed with accuracy due to the use of water suppression or low signal/noise ratio and display a blue circle in the STD-derived epitope maps. Moreover, the resonances overlapped on the ^1H-NMR spectrum were considered in STD estimation and are labelled as *.

[4] = Kd, excess UDP (1 mM UDP, 1 mM MnCl2), 2 mM (glyco)peptide, 50–60 µM enzyme, 25 mM TRIS pH 7.5, 150 mM NaCl, 20 °C, one-site fit ± fit error, n = 2
[5] = acceptor varied, 500 µM UDP-Gal, 500 nM enzyme, pH 7.5, 30 min 37 °C, n = 2
[6] = Kd, absence of UDP, 2 mM glycopeptide, 60 µM enzyme, 25 mM TRIS pH 7.5, 150 mM NaCl, 1 mM MnCl2, 20 °C, one-site fit ± fit error, n = 2
[7] = UDP titration, 1 mM MnCl2, 20 °C

CC(=O)N[C@H]1[C@@H](O[C@H](C)[C@H](NC(=O)[C@H](CC(=O)O)NC(=O)[C@@H]2CCCN2C(=O)[C@H](C)N)C(=O)N[C@@H](CCCNC(=N)N)C(=O)N2CCC[C@H]2C(N)=O)O[C@H](CO)[C@H](O)[C@@H]1O [APDT*RP]
Kd (DmC1GalT1^T43-Q388 [1]; [4]): 173 µM | Kd (DmC1GalT1^T43-Q388 [1]; absence of UDP, 2 mM glycopeptide, 60 µM enzyme, 25 mM TRIS pH 7.5, 150 mM NaCl, 1 mM MnCl2, 20 °C, one-site fit ± fit error, n = 2): Not measurable under our conditions | kcat app/Km app (catalytic efficiency) (DmC1GalT1^T43-Q388 [2]; [5]): 300 ± 67 M⁻¹ s⁻¹ and 301.5 M⁻¹ s⁻¹

CC(=O)N[C@H]1[C@@H](O[C@H](C)[C@H](NC(=O)[C@H](C)NC(=O)[C@H](C)NC(=O)[C@@H]2CCCN2)C(=O)NCC(=O)N2CCC[C@H]2C(=O)N[C@@H](Cc2ccc(O)cc2)C(N)=O)O[C@H](CO)[C@H](O)[C@@H]1O [P4] (H-PAAT(αGalNAc)GPY-NH2)
Kd (DmC1GalT1^T43-Q388 [1]; [6]): 41 µM | kcat app/Km app (catalytic efficiency) (DmC1GalT1^T43-Q388 [2]; [5]): 1130 ± 100 M⁻¹ s⁻¹ and 1127 M⁻¹ s⁻¹

CC(=O)N[C@H]1[C@@H](O[C@H](C)[C@H](NC(=O)[C@H](CC(=O)O)NC(=O)[C@H](C)NC(=O)[C@@H](N)Cc2ccc(O)cc2)C(=O)NCC(=O)N2CCC[C@H]2C(=O)N[C@@H](Cc2ccccc2)C(N)=O)O[C@H](CO)[C@H](O)[C@@H]1O [P7] (H-YADT(αGalNAc)GPF-NH2)
Kd (DmC1GalT1^T43-Q388 [1]; [6]): 37.1 µM | Kd (DmC1GalT1^T43-Q388 [1]; [4]): 60 µM | kcat app/Km app (catalytic efficiency) (DmC1GalT1^T43-Q388 [2]; [5]): 478.8 M⁻¹ s⁻¹

O=c1ccn([C@@H]2O[C@H](COP(=O)(O)OP(=O)(O)O)[C@@H](O)[C@H]2O)c(=O)[nH]1 [UDP]
Kd (DmC1GalT1^T43-Q388 [1]): 18.4 µM | binding, fold stronger than binding of APDT*RP (DmC1GalT1^T43-Q388 [1]; ITC, relative to APDT*RP): ~ 9.5 fold | n (stoichiometry of binding) (DmC1GalT1^T43-Q388 [1]; [7]): 0.4 | ΔH (DmC1GalT1^T43-Q388 [1]; [7]): -4.264 ± 0.471 kcal/mol

CO[C@H]1O[C@H](CO)[C@H](O)[C@H](O)[C@H]1NC(C)=O [α-O-methyl-GalNAc]
STDAF, CH3 (NHAc) GalNAc (DmC1GalT1^T43-Q388 [3]; on resonance 7 ppm): 20.0 | STDAF, H2 GalNAc (DmC1GalT1^T43-Q388 [3]; on resonance 7 ppm): 45.0 | STDAF, H3 GalNAc (DmC1GalT1^T43-Q388 [3]; on resonance 7 ppm): 24.9 | STDAF, H4 GalNAc (DmC1GalT1^T43-Q388 [3]; on resonance 7 ppm): 27.9 | STDAF, H5-GalNAc (DmC1GalT1^T43-Q388 [3]; on resonance 7 ppm): 25.8 | STDAF, H6-GalNAc (DmC1GalT1^T43-Q388 [3]; on resonance 7 ppm): 29.5 | STDAF, OMe (DmC1GalT1^T43-Q388 [3]; on resonance 7 ppm): 16.6 | relative % STD, CH3 (NHAc) GalNAc (DmC1GalT1^T43-Q388 [3]; on resonance 7 ppm): 44% | relative % STD, H3 GalNAc (DmC1GalT1^T43-Q388 [3]; on resonance 7 ppm): 55% | relative % STD, H4 GalNAc (DmC1GalT1^T43-Q388 [3]; on resonance 7 ppm): 62% | relative % STD, H5-GalNAc (DmC1GalT1^T43-Q388 [3]; on resonance 7 ppm): 57% | relative % STD, H6-GalNAc (DmC1GalT1^T43-Q388 [3]; on resonance 7 ppm): 66% | relative % STD, OMe (DmC1GalT1^T43-Q388 [3]; on resonance 7 ppm): 37% | STDAF, CH3 (NHAc) GalNAc (DmC1GalT1^T43-Q388 [3]; on resonance -0.5 ppm): 18.9 | STDAF, H3 GalNAc (DmC1GalT1^T43-Q388 [3]; on resonance -0.5 ppm): 20.0 | STDAF, H4 GalNAc (DmC1GalT1^T43-Q388 [3]; on resonance -0.5 ppm): 28.7 | STDAF, H6-GalNAc (DmC1GalT1^T43-Q388 [3]; on resonance -0.5 ppm): 23.6 | STDAF, OMe (DmC1GalT1^T43-Q388 [3]; on resonance -0.5 ppm): 17.6 | relative % STD, CH3 (NHAc) GalNAc (DmC1GalT1^T43-Q388 [3]; on resonance -0.5 ppm): 61% | relative % STD, H3 GalNAc (DmC1GalT1^T43-Q388 [3]; on resonance -0.5 ppm): 65% | relative % STD, H4 GalNAc (DmC1GalT1^T43-Q388 [3]; on resonance -0.5 ppm): 93% | relative % STD, H6-GalNAc (DmC1GalT1^T43-Q388 [3]; on resonance -0.5 ppm): 77% | relative % STD, OMe (DmC1GalT1^T43-Q388 [3]; on resonance -0.5 ppm): 57% | STDAF, H2 GalNAc (DmC1GalT1^T43-Q388 [3]; on resonance -0.5 ppm, […] UDP, 150 µM MnCl2, 298 K): 30.7 | STD response (DmC1GalT1^T43-Q388 [3]; presence of UDP ([…]) and 150 µM MnCl2, 20 µM enzyme, 710 µM ligand): clearly presented STD enhancements | activity as acceptor substrate (DmC1GalT1^T43-Q388 [2]; 500 µM UDP-Gal): kinetic parameters could not be determined | Vmax app (DmC1GalT1^T43-Q388 [2]; acceptor varied, 500 µM UDP-Gal, 500 nM enzyme, pH 7.5, 30 min 37 °C, Michaelis–Menten fit ± standard error, n = 2): 548.9 nmol/min/mg | initial activity relative to that achieved with APDT*RP (DmC1GalT1^T43-Q388 [2]; at a saturating concentration of the glycopeptides (~500 µM)): half | Km (DmC1GalT1^T43-Q388 [2]; read-out: Km app, acceptor substrate varied (P1–P7 12.5–500 µM; APDT*RP/APDS*RP 12.5–1000 µM; α-O-methyl-GalNAc up to 2 mM), 500 µM UDP-Gal, 500 nM enzyme, 25 mM Tris pH 7.5, 150 mM NaCl, 50 µM MnCl2, 1 mg/ml BSA, 30 min 37 °C, Michaelis–Menten fit ± standard error, n = 2): 10.3 mM | saturation of the enzyme (DmC1GalT1^T43-Q388 [2]; up to 2 mM substrate): did not reach saturation up to 2 mM
